≈ marks a conversion by molar mass, not a printed value.
Assays:
Assay type in all cases: cell-based
[1] = tested on: TK173 cells; test: ELISA to detect secreted type I collagen (Pro-Collagen I alpha 1) in conditioned media of TGFβ1-treated TK173 fibroblasts; conditions: Homo sapiens, Fibroblast, 10 ng/ml TGFβ1 for 5 days, then compound 48 hours, Pro-Collagen I alpha 1 ELISA of conditioned media, read-out: IC50, concentration where the TGFβ-stimulated collagen secretion is attenuated by 50%
Method: (§1) Compound reconstitution. Prior to treatment, each compound was used from a stock solution of a concentration of 10 mg/ml in DMSO. Final concentration of DMSO in cell cultures was kept below 0.1%.
(§2) Cell culture and treatment. The human renal fibroblast cell line TK173 was derived from a normal human kidney (laboratory stock; (G. A. Müller et al., Exp. Nephrol. 1995, 3, 127). Cell line stabilization for research purposes was approved by the Ethics Committee of the Georg-August-University. TK173 cells were cultured in Dulbecco's modified Eagle's medium (DMEM, Gibco, USA) supplemented with 10% fetal bovine serum (FBS, Gibco, Germany) and 1% penicillin-streptomycin (PS, Gibco, USA) at 37° C. in a humidified atmosphere with 5% CO2. Cell line was routinely tested for mycoplasma contamination. To investigate the effect of compounds after profibrotic agent treatment, 3×10^4 TK173 cells were seeded in one well of a 6-well culture plate in normal medium. After 24 hours, the culture medium was removed, and the cells were incubated for a further 24 hours in FBS free culture medium (starvation medium). Then, 10 ng/ml TGFβ1 (R&D Systems, USA) was added to the starvation medium, and the culture medium was changed with fresh TGFβ1 in every alternate day. After 5 days of TGFβ1 treatment, cell culture medium was replaced by starvation medium with compounds at different concentration for following 48 hours of incubation.
Conditioned media containing the secretome of TK173 fibroblast were harvested after 48 hours of compound treatments. Secretion of pro-Collagen 1 was assessed with Human Pro-Collagen I alpha 1 DuoSet ELISA (R&D Systems, USA). To prepare the ELISA plate, Human Pro-Collagen I α1 Capture Antibody was diluted in ELISA Plate-coating Buffer at 4 μg/ml working concentration. 100 μl of diluted Capture Antibody was added to the 96-well microplates and incubated overnight at room temperature. After three times washing with Wash Buffer, microplates were blocked by adding 300 μl of Reagent Diluent for 1 hour at room temperature. To proceed the ELISA, Human Pro-Collagen I α1 Standards were diluted in Reagent Diluent (range between 31.3 pg/ml-2000 pg/ml) and 100 μl of standards or conditioned mediums were add into designated wells. Microplates were incubated at room temperature for 2 hours. Human Pro-Collagen I α1 Detection Antibody was prepared in Reagent Diluent at 100 ng/ml working concentration and 100 μl of diluted Detection Antibody was applied for 2 hours at room temperature after extensive washing. Then, working solution of Streptavidin-HRP with Reagent Diluent was prepared by diluting 1:40 and added into each well. After 20 minutes at room temperature incubation, microplates were washed and applied with 100 μl of Substrate Solution for 20 minutes followed by Stop Solution after washing. Finally, signals were measured at 450 nm absorbance by PHOmo Microplate Reader (Autobio, China). The amount of pro-collagen 1 antibody fusion was quantified by extrapolating the signal into a linear range of a pro-collagen 1 standard curve. Screening compounds were typically tested in at concentrations between 5 and 200 μg/ml. The IC50 values observed by the dose response curves for each compound (n=4-6, two independent experiments) were obtained by nonlinear regression analysis using Prism 9 software (GraphPad, La Jolla, USA) and represent the concentration where the TGFβ-stimulated collagen secretion is attenuated by 50%.

[2] = tested on: TK173 cells; test: Collagen I mRNA PCR assay (qPCR, normalized to GAPDH) in TGFβ1-treated TK173 fibroblasts; conditions: Homo sapiens, Fibroblast, 10 ng/ml TGFβ1 for 5 days, then compound 48 hours
Method: as §1, §2
RNA isolation. Total RNA was extracted by the TRIzol reagent (Life technologies, USA) and purified by PureLink RNA Mini Kit (Ambion, USA) according to instructions available from the manufacturer with minor modifications. The samples were stored at −80° C. prior to use. RNA concentrations were measured by NanoDrop Spectrophotometer (ThermoFisher Scientific, USA), and were equilibrated to 100 ng for complementary DNA (cDNA) synthesis.
Quantitative real-time PCR analysis (qPCR). For SYBR Green-based qPCR analysis, cDNA preparation was performed by using DNAse I (Sigma-Aldrich, USA) digestion to remove residual genomic DNA and SuperScript II Reverse Transcriptase kit (Invitrogen, USA) to synthesize cDNA following the manufacturer's detailed instructions. All qPCR reactions were performed using the StepOne Plus Real-Time System (Applied Biosystems, USA) and amplifications were done using the SYBR Green PCR Master Mix (Applied Biosystems, USA). The thermal cycling conditions were initiated to 95° C. for 20 seconds, 40 amplification cycles at 95° C. for 3 seconds and 60° C. for 30 seconds, with one cycle of dissociation at 95° C. for 15 seconds, 60° C. for 60 seconds, and 95° C. for 15 seconds. Three replicates per sample were run in duplicate. The experimental cycle threshold (Ct) values were normalized to those obtained for GAPDH, and the relative gene expression level was determined using the 2_ddCT methods.

[3] = tested on: TK173 cells; test: Collagen I Western blot in TGFβ1-treated TK173 fibroblasts; conditions: Homo sapiens, Fibroblast, 10 ng/ml TGFβ1 for 5 days, then compound 48 hours, Collagen I immunoblot
Method: as §1, §2
Protein Extraction. Total proteins were extracted from the cultured cells by NP40 Cell Lysis Buffer (Invitrogen, USA) containing phosphatase (Sigma-Aldrich, USA) and protease inhibitor (Roche, Switzerland) followed by sonication and centrifugation at 12,000×g for 20 minutes at 4° C. to clear the lysates. The supernatant was collected and measured using Pierce BCA Protein Assay Kit (ThermoFisher Scientific) by PHOmo Microplate Reader (Autobio, China). The samples were stored at −80° C. prior to use.
Immunoblotting. Western blot analysis, 10 μg of extracted proteins were diluted in NuPAGE LDS Samples Buffer (Novex Life technologies, USA) containing 5% 2-Mercaptoethanol (Sigma-Aldrich, Germany), and following denatured for 5 minutes at 95° C. The proteins were resolved by 4-12% NuPAGE SDS-PAGE (Novex Life technologies, USA). Blots were often stripped with Thermo Scientific Restore PLUS Western Blot Stripping Buffer (Thermo Fisher Scientific, Germany) for reprobing. The following antibodies were used for immunoblotting: Collagen I (1:1000; ab233080, Abcam, USA), alpha smooth muscle Actin (1:1000; ab124964, Abcam, USA), GAPDH (1:8000; sc-32233, Santa Cruz, USA). Proteins were detected by LumiGLO chemiluminescent system (Cell Signaling Technology, USA) with appropriate secondary antibodies: anti-mouse HRP (1:2500; Dako, Denmark) and anti-rabbit HRP (1:2500; 7074, Cell Signaling Technology, USA) using ChemiDoc MP Imaging System (Bio-Rad, USA).

## Cc1nnc2c3ccccc3cnn12 [Compound 3, 3-Methyl-1,2,4-triazolo[3,4-a]phthalazine]
[1]
  IC50: 96 µg/mL (≈ 521 µM)
[2]
  IC50: < 20 µg/mL
[3]
  IC50: < 5 µg/mL

## c1ccc2c(c1)cnn1nnnc21 [Compound 1, Tetrazolo[5,1-a]phthalazine]
[1]
  IC50: 157 µg/mL (≈ 917 µM)
[2]
  IC50: < 80 µg/mL
[3]
  IC50: < 40 µg/mL
